Experimental data from article PMC8582287 (International journal of antimicrobial agents, 2020).
Entries after “also recorded” stand apart in the source; their conditions may differ. Where two headings read alike, the source gives them in different places.

Key:
[1] = system: human foreskin fibroblasts (HFF); test: Cytotoxicity in human foreskin fibroblasts, Alamar blue; assay type: cell-based; details: read-out: Cytotoxicity CC50 HFF, 3 days, 0.0009-20 μM
[2] = system: human Ether-à-go-go Related Gene (hERG); details: cited from earlier work
[3] = system: T. gondii oocyst infection; details: pregnant CD1 mice, ref [20]; cited from earlier work
HepG2 (hepatocyte) cells = test: Cytotoxicity in HepG2 cells, Alamar Blue; assay type: cell-based, human; details: read-out: Cytotoxicity CC50 HEP-G2, 48h
[4] = system: CRL-8155 (lymphocyte) cells; test: Cytotoxicity in CRL-8155 cells, Alamar Blue; assay type: cell-based, human; details: read-out: Cytotoxicity CC50 CRL-8155, 48h
N. caninum tachyzoites [5] = details: read-out: Proliferation EC50 N.caninum, ref [25]; cited from earlier work
pregnant BALB/c mice [6] = test: Assessment of BKI-interference in pregnancy in non-infected mice; details: for Offspring mortality (dead/born pups): 50 mg/kg/day oral gavage for 5 days, follow-up 14 days
pregnant BALB/c mice [7] = details: mouse, in vivo, 50 mg/kg/day
[8] = system: zebrafish (Danio rerio) embryos; test: Zebrafish embryo development test with impact score Si; assay type: in vivo; details: for Embryo toxicity in the zebrafish assay (in words) / Lowest concentration exerting a negative Si: 0.2-50 μM; for Embryo toxicity in the zebrafish assay (in words): 96hpf; for Lowest concentration exerting a negative Si: zebrafish embryos, until 96h post fertilization; for Embryonal alterations observed during BKI-exposure: 24h, representative image
N. caninum tachyzoites [9] = details: read-out: Proliferation EC50 N.caninum
[10] = system: Neospora-infected pregnant mice; details: 50mg/kg, ref [23]; cited from earlier work
rats = details: when dosed in rats; no reference given; cited from earlier work
[11] = 50 mg/kg/day oral gavage in corn oil for 5 days

Row | Structure (SMILES) | CC50 [1] | CC50 (HepG2 (hepatocyte) cells) | CC50 [4] | Offspring mortality (dead/born pups) (pregnant BALB/c mice [6]) | Embryo toxicity in the zebrafish assay (in words) [8] | Fertility (pregnant/mated females) (pregnant BALB/c mice [6]; [11]) | EC50 (N. caninum tachyzoites [9]) | also measured
1 | CCOc1ccc2cc(-c3nn(CC4CCN(C)CC4)c4ncnc(N)c34)ccc2c1 [BKI-1294] | > 20 µM | > 40 µM | > 40 µM | 0/27 | very low embryo toxicity | – | – | hERG inhibition in vitro ([2]; ref [24]): inhibited; Offspring survival [3]: 100%; EC50 (N. caninum tachyzoites [5]): 0.04 µM; Overall number of pups born (pregnant BALB/c mice [7]): 27; Pups/dams (pregnant BALB/c mice [7]; po): 27/4; Lowest concentration exerting a negative Si [8]: ≥ 40 µM; Lowest concentration exerting a negative Si ([8]; listed as 1294): 40 µM
2 | CCOc1ccc2cc(-c3nn(CC4CCN(C)CC4)c4ncnc(N)c34)ccc2n1 [BKI-1369] | > 20 µM | > 80 µM | > 80 µM | 0/31 | very low embryo toxicity | 5/6 | 0.035 µM | Pups/dams (pregnant BALB/c mice [6]; [11]): 31/5
3 | CCOc1ccc2cc(-c3nn(C(C)(C)C)c(N)c3C(N)=O)cnc2c1 [BKI-1517] | > 20 µM | > 40 µM | > 40 µM | – | high toxicity at all concentrations | ^*2/7 | 0.269 µM | Neonatal mortality [10]: 100%; Change in mean arterial pressure (rats): significant change in mean arterial pressure; hERG inhibition in vitro ([2]; no reference given): did not inhibit; Embryonal alterations observed during BKI-exposure ([8]; 20 μM): tail curvature; also recorded: half-hatched embryo; Embryonal alterations observed during BKI-exposure ([8]; 50 μM): pericardial edema; Lowest concentration exerting a negative Si ([8]; listed as 1517): 0,2 μM; Lowest concentration exerting a negative Si ([8]; listed as -1517): 0.2 µM
